Data set [1] concerns the target T1, human calcitonin receptor (hCTR2) (Homo sapiens, UniProt P30988).
T1 construct: expressed in transfected cells
T1 sequence (P30988 25-474): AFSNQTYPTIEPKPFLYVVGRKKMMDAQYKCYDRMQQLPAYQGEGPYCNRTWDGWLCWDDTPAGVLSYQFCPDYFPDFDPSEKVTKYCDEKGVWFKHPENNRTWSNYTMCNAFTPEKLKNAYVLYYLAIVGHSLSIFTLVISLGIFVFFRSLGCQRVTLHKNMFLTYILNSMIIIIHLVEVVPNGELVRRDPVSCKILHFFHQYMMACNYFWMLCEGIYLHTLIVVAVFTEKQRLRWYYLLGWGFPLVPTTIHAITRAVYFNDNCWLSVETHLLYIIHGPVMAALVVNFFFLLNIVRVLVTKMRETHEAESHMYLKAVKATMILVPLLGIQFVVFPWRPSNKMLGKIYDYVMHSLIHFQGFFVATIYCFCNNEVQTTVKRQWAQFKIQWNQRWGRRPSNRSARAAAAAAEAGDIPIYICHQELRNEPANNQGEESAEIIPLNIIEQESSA
The data set can be described thus: hCTR2 assay: induction of cAMP (AlphaScreen cAMP Assay kit) in COS7 cells expressing hCTR2. The class given is cell-based. The procedure, abridged: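 cAMP read-out by AlphaScreen after cell lysis; EC50 and % efficacy vs pramlintide from 4-parameter logistic fitting. Agonist stimulation: hCTR2-COS7 stable cells, 15 min, 37° C, 100 µM IBMX, 0.1% casein, Tyrode/HEPES pH 7.4.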
(Alpha assays give light when donor and acceptor beads are brought close together.)

Data set [2] can be described thus: Solubility assessment (turbidity absorbance at 325 nm). The note with it: stock 2 mg/ml diluted 1:1, ambient temperature (typically 25°C), n=1; for Solubility, Acetate buffer pH 4: 100 mM acetate buffer pH 4.0; for Solubility, Acetate buffer pH 5: 100 mM acetate buffer pH 5.0; for Solubility, Histidine buffer pH 6: 100 mM histidine buffer pH 6.0; for Solubility, Histidine buffer pH 7: 100 mM histidine buffer pH 7.0; for Solubility, Phosphate buffer pH 6: 100 mM phosphate buffer pH 6.0; for Solubility, Phosphate buffer pH 7: 100 mM phosphate buffer pH 7.0; for Solubility, Phosphate buffer pH 7.5: 100 mM phosphate buffer pH7.5. It counts as physicochemical. In a few lines:
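Turbidity read as absorbance at 325 nm (also 280 nm), single samples at ambient temperature (typically 25°C); ≤ 0.02 units counts as ≥ 1 mg/ml soluble. Samples made by 1:1 dilution of a 2 mg/ml acidic stock into 100 mM acetate, histidine or phosphate buffers, pH 4.0–7.5.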

In data set [3] the target is T2, human amylin receptor 3 (hAMYR3) consisting of hCTR2 co-expressed with human Receptor Activity Modifying Protein 3 (hRAMP3) (Homo sapiens, UniProt O60896+P30988).
T2 construct: expressed in transfected cells
T2 sequence (P30988 25-474): T1 sequence (P30988 25-474)
T2 sequence (O60896 24-148 partner): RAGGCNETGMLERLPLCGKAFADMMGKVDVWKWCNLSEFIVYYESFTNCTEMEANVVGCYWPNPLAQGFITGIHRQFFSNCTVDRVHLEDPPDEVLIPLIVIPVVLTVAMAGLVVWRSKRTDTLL
Description: hAMYR3 assay: induction of cAMP (AlphaScreen cAMP Assay kit) in COS7 cells expressing hAMYR3. It counts as cell-based. The procedure, abridged: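 cAMP accumulation read by AlphaScreen in lysates of RAMP-naive COS7 cells stably transfected with hCTR2 plus hRAMP3. Cells exposed to peptide dilutions for 15 min, 37° C, with 100 µM IBMX; 4PL fitting gave EC50 and efficacy relative to pramlintide.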

[4] abbreviates: cAMP induction in COS7 cells expressing hCTR2, average of a minimum of 3 determinations, read-out: hCTR2 EC50.
The mark [5] stands for this setting: cAMP induction in COS7 cells expressing hAMYR3, average of a minimum of 3 determinations, read-out: hAMY R3 EC50.

Where two headings read alike, the source gives them in different places. Numbered stars: 1 amine (or outer) side, 2 acyl side, 3 side chain; on linkers, the order of the positions; unused ones are H or OH. Bridge positions count the residues as written; N and C are the ends. Square brackets hold non-standard residues; d marks the D form. Peptide text beside a SMILES is read from it. * marks the point of attachment. C20 diacid = O=C(O)CCCCCCCCCCCCCCCCCCC(=O)*; γGlu = O=C(O)[C@H](CCC(=O)[*:2])N[*:1]; Hyp = O=C(O)[C@@H]1C[C@@H](O)CN1; NMeI = CC[C@H](C)[C@H](NC)C(=O)O; Sar = CNCC(=O)O

Broadly, the EC50 is the concentration that produces a half-maximal response. Consider `CC[C@H](C)[C@@H](C(=O)N[C@@H](CC(C)C)C(=O)N[C@@H](CO)C(=O)N[C@@H](CO)C(=O)N[C@H](C(=O)N[C@@H](CCC(=O)O)C(=O)N[C@H](C(=O)NCC(=O)N[C@@H](CO)C(=O)N[C@@H](CCC(=O)O)C(=O)N[C@H](C(=O)N1CCC[C@H]1C(N)=O)[C@@H](C)O)C(C)C)[C@@H](C)O)N(C)C(=O)CN(C)C(=O)[C@H](Cc1ccccc1)NC(=O)[C@H](CO)NC(=O)[C@H](CO)NC(=O)[C@H](CO)NC(=O)[C@H](CO)NC(=O)[C@H](CCCNC(=N)N)NC(=O)[C@H](Cc1c[nH]cn1)NC(=O)[C@H](CC(C)C)NC(=O)[C@H](Cc1ccccc1)NC(=O)[C@H](CCC(=O)O)NC(=O)[C@H](C)NC(=O)[C@H](CC(C)C)NC(=O)[C@H](CCCNC(=N)N)NC(=O)[C@H](CCC(N)=O)NC(=O)[C@@H](NC(=O)[C@H](C)NC(=O)[C@@H]1CSSC[C@H](NC(=O)[C@H](CCCNC(=N)N)NC(=O)CC[C@H](NC(=O)CCCCCCCCCCCCCCCCCCC(=O)O)C(=O)O)C(=O)N[C@@H](CC(N)=O)C(=O)N[C@@H]([C@@H](C)O)C(=O)N[C@@H](C)C(=O)N[C@@H]([C@@H](C)O)C(=O)N1)[C@@H](C)O` [Compound 77, [19CD]-isoGlu-RC()NTATC()ATQRLAEFLHRSSSSF-Gly(Me)-Ile(Me)-LSSTEVGSETP-NH2] ({C20 diacid-γGlu}-RCNTATCATQRLAEFLHRSSSSF[Sar][NMeI]LSSTEVGSETP-NH2; disulfide 2-7), for which the EC50 in data set [1] (setting [4]) came out at 0.17 nM. In data set [2], the “Solubility, Acetate buffer pH 4” value was “SS (SS indicates solubility ≥ 1mg/ml)”; the “Solubility, Acetate buffer pH 5” value was “II (II indicates solubility ≤ 1 mg/ml)”; the “Solubility, Histidine buffer pH 6” value was “II (II indicates solubility ≤ 1 mg/ml)”; the “Solubility, Histidine buffer pH 7” value was “SS (SS indicates solubility ≥ 1mg/ml)”. Also, in data set [2], the “Solubility, Phosphate buffer pH 6” value was “II (II indicates solubility ≤ 1 mg/ml)”; the “Solubility, Phosphate buffer pH 7” value was “SS (SS indicates solubility ≥ 1mg/ml)”; the “Solubility, Phosphate buffer pH 7.5” value was “SS (SS indicates solubility ≥ 1mg/ml)”. The EC50 in data set [3] (setting [5]) was determined as 0.24 nM.
With `CC[C@H](C)[C@@H](C(=O)N[C@@H](CC(C)C)C(=O)N[C@@H](CO)C(=O)N[C@@H](CO)C(=O)N[C@H](C(=O)N[C@@H](CC(N)=O)C(=O)N[C@H](C(=O)NCC(=O)N[C@@H](CO)C(=O)N[C@@H](CC(N)=O)C(=O)N[C@H](C(=O)N1CCC[C@H]1C(N)=O)[C@@H](C)O)C(C)C)[C@@H](C)O)N(C)C(=O)[C@H](C)NC(=O)CN(C)C(=O)[C@H](Cc1ccccc1)NC(=O)[C@H](CC(N)=O)NC(=O)[C@H](CC(N)=O)NC(=O)[C@H](CO)NC(=O)[C@H](CO)NC(=O)[C@H](CCCNC(=N)N)NC(=O)[C@H](Cc1c[nH]cn1)NC(=O)[C@H](CC(C)C)NC(=O)[C@H](Cc1ccccc1)NC(=O)[C@H](CCC(=O)O)NC(=O)[C@H](C)NC(=O)[C@H](CC(C)C)NC(=O)[C@H](CCCNC(=N)N)NC(=O)[C@H](CCC(N)=O)NC(=O)[C@@H](NC(=O)[C@H](C)NC(=O)[C@@H]1CSSC[C@H](NC(=O)[C@H](CCCNC(=N)N)NC(=O)[C@H](CCCCN)NC(=O)CC[C@H](NC(=O)CCCCCCCCCCCCCCCCCCC(=O)O)C(=O)O)C(=O)N[C@@H](CC(N)=O)C(=O)N[C@@H]([C@@H](C)O)C(=O)N[C@@H](C)C(=O)N[C@@H]([C@@H](C)O)C(=O)N1)[C@@H](C)O` [Compound 84, [19CD]-isoGlu-KRC()NTATC()ATQRLAEFLHRSSNNF-Gly(Me)-A-Ile(Me)-LSSTNVGSNTP-NH2] ({C20 diacid-γGlu}-KRCNTATCATQRLAEFLHRSSNNF[Sar]A[NMeI]LSSTNVGSNTP-NH2; disulfide 3-8), the EC50 in data set [1] was 0.11 nM. In data set [2], the “Solubility, Acetate buffer pH 4” value is given as “SS (SS indicates solubility ≥ 1mg/ml)”; the “Solubility, Acetate buffer pH 5” value is given as “SS (SS indicates solubility ≥ 1mg/ml)”; the “Solubility, Histidine buffer pH 6” value is “SS (SS indicates solubility ≥ 1mg/ml)”; the “Solubility, Histidine buffer pH 7” value is “SS (SS indicates solubility ≥ 1mg/ml)”. Besides, in data set [2], the “Solubility, Phosphate buffer pH 6” value is “SS (SS indicates solubility ≥ 1mg/ml)”; the “Solubility, Phosphate buffer pH 7” value is given as “SS (SS indicates solubility ≥ 1mg/ml)”; the “Solubility, Phosphate buffer pH 7.5” value is listed as “SS (SS indicates solubility ≥ 1mg/ml)”. Besides, in data set [3], the concentration for a half-maximal effect (EC50) worked out at 0.1 nM.
`CC[C@H](C)[C@@H](C(=O)N[C@@H](CC(C)C)C(=O)N[C@@H](CO)C(=O)N[C@@H](CO)C(=O)N[C@H](C(=O)N[C@@H](CCC(=O)O)C(=O)N[C@H](C(=O)NCC(=O)N[C@@H](CO)C(=O)N[C@@H](CCC(=O)O)C(=O)N[C@H](C(=O)N1C[C@H](O)C[C@H]1C(N)=O)[C@@H](C)O)C(C)C)[C@@H](C)O)N(C)C(=O)CN(C)C(=O)[C@H](Cc1ccccc1)NC(=O)[C@H](CO)NC(=O)[C@H](CO)NC(=O)[C@H](CO)NC(=O)[C@H](CO)NC(=O)[C@H](CCCNC(=N)N)NC(=O)[C@H](Cc1c[nH]cn1)NC(=O)[C@H](CC(C)C)NC(=O)[C@H](Cc1ccccc1)NC(=O)[C@H](CCC(=O)O)NC(=O)[C@H](C)NC(=O)[C@H](CC(C)C)NC(=O)[C@H](CCCNC(=N)N)NC(=O)[C@H](CCC(=O)O)NC(=O)[C@@H](NC(=O)[C@H](C)NC(=O)[C@@H]1CSSC[C@H](NC(=O)[C@H](CCCNC(=N)N)NC(=O)CC[C@H](NC(=O)CCCCCCCCCCCCCCCCCCC(=O)O)C(=O)O)C(=O)N[C@@H](CCC(=O)O)C(=O)N[C@@H]([C@@H](C)O)C(=O)N[C@@H](C)C(=O)N[C@@H]([C@@H](C)O)C(=O)N1)[C@@H](C)O` [Compound 171, [19CD]-isoGlu-RC()ETATC()ATERLAEFLHRSSSSF-Gly(Me)-Ile(Me)-LSSTEVGSET-Hyp-NH2] ({C20 diacid-γGlu}-RCETATCATERLAEFLHRSSSSF[Sar][NMeI]LSSTEVGSET[Hyp]-NH2; disulfide 2-7): the 50% effective concentration (EC50) in data set [1] (setting [4]) is 0.84 nM; in data set [3] (setting [5]), 0.54 nM.
For `CC[C@H](C)[C@@H](C(=O)N[C@@H](CC(C)C)C(=O)N[C@@H](CO)C(=O)N[C@@H](CO)C(=O)N[C@H](C(=O)N[C@@H](CC(=O)O)C(=O)N[C@H](C(=O)NCC(=O)N[C@@H](CO)C(=O)N[C@@H](CC(=O)O)C(=O)N[C@H](C(=O)N1CCC[C@H]1C(N)=O)[C@@H](C)O)C(C)C)[C@@H](C)O)N(C)C(=O)[C@H](C)NC(=O)CN(C)C(=O)[C@H](Cc1ccccc1)NC(=O)[C@H](CO)NC(=O)[C@H](CO)NC(=O)[C@H](CO)NC(=O)[C@H](CO)NC(=O)[C@H](CCCNC(=N)N)NC(=O)[C@H](Cc1c[nH]cn1)NC(=O)[C@H](CC(C)C)NC(=O)[C@H](Cc1ccccc1)NC(=O)[C@H](CCC(=O)O)NC(=O)[C@H](C)NC(=O)[C@H](CC(C)C)NC(=O)[C@H](CCCNC(=N)N)NC(=O)[C@H](CCC(=O)O)NC(=O)[C@@H](NC(=O)[C@H](C)NC(=O)[C@@H]1CSSC[C@H](NC(=O)[C@H](CCCNC(=N)N)NC(=O)CC[C@H](NC(=O)CCCCCCCCCCCCCCCCCCC(=O)O)C(=O)O)C(=O)N2CCC[C@H]2C(=O)N[C@@H]([C@@H](C)O)C(=O)N[C@@H](C)C(=O)N[C@@H]([C@@H](C)O)C(=O)N1)[C@@H](C)O` [Compound 173, [19CD]-isoGlu-RC()PTATC()ATERLAEFLHRSSSSF-Gly(Me)-A-Ile(Me)-LSSTDVGSDTP-NH2] ({C20 diacid-γGlu}-RCPTATCATERLAEFLHRSSSSF[Sar]A[NMeI]LSSTDVGSDTP-NH2; disulfide 2-7) the same measures were 0.062 nM and 0.14 nM.

The values above are taken from patent publication EP3046573B1, “AMYLIN ANALOGUES” (Zealand Pharma A/S, priority 2013, dated 2015).
